# Target: CK2A1 (CK2α/β) (Homo sapiens, UniProt P68400)
# Assay: CK2 kinase assay, CK2A1 (CK2α/β)
# Assay type: biochemical
# Details: Table A; read-out: CK2A1 (CK2α/β) (IC50)
# Chain of CK2A1 (CK2α/β) (P68400 whole entry, species assumed): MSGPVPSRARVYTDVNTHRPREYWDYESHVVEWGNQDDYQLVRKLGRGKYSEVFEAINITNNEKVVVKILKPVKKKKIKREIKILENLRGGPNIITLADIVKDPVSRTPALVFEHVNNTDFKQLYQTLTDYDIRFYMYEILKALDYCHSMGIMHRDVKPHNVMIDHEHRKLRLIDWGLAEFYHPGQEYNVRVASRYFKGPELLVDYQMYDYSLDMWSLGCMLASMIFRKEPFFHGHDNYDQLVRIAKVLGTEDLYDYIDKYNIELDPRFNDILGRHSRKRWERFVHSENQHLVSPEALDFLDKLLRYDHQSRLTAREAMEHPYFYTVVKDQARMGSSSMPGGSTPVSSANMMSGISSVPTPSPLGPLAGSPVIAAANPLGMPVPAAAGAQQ
# Chain of CK2A1 (CK2α/β) (P67870 whole entry partner, species assumed): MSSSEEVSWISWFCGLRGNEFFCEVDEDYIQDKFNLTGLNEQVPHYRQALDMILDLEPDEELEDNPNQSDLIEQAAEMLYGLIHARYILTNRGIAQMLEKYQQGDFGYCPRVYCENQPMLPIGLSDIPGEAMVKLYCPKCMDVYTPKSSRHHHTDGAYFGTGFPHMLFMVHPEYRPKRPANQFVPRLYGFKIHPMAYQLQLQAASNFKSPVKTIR
row,Structure (SMILES),IC50 [nM]
1,"N#Cc1cc(Nc2nc(NC3CC3)c3ncc(C#N)n3n2)c(Cl)c(N2CCN(CC(O)CF)CC2=O)c1 (racemic) [Example 622, (+/−)-2-((2-chloro-5-cyano-3-(4-(3-fluoro-2-hydroxypropyl)-2-oxopiperazin-1-yl)phenyl)amino)-4-(cyclopropylamino)imidazo[2,1-f][1,2,4]triazine-7-carbonitrile]",1.09
2,"CCNc1nc(Nc2cc(C#N)cc(C3CCN(C(C)C(N)=O)CC3)c2Cl)nn2c(C#N)cnc12 (racemic) [Example 640, (+/−)-2-(4-(2-chloro-5-cyano-3-((7-cyano-4-(ethylamino)imidazo[2,1-f][1,2,4]triazin-2-yl)amino)phenyl)piperidin-1-yl)propanamide]",2.22
3,"CC(O)c1cc(C#N)cc(Nc2nc(NC3CC3)c3ncc(C#N)n3n2)c1Cl (racemic) [Example 677, (+/−)-2-((2-chloro-5-cyano-3-(1-hydroxyethyl)phenyl)amino)-4-(cyclopropylamino)imidazo[2,1-f][1,2,4]triazine-7-carbonitrile]",0.47
4,"CC(c1cc(C#N)cc(Nc2nc(NC3CC3)c3ncc(C#N)n3n2)c1Cl)N1CCNC(=O)C1 (racemic) [Example 679, (+/−)-2-((2-chloro-5-cyano-3-(1-(3-oxopiperazin-1-yl)ethyl)phenyl)amino)-4-(cyclopropylamino)imidazo[2,1-f][1,2,4]triazine-7-carbonitrile]",1.22
5,"N#Cc1cc(Nc2nc(NC3CC3)c3ncc(C#N)n3n2)c(Cl)c(C(O)C(F)(F)F)c1 (racemic) [Example 680, (+/−)-2-((2-chloro-5-cyano-3-(2,2,2-trifluoro-1-hydroxyethyl)phenyl)amino)-4-(cyclopropylamino)imidazo[2,1-f][1,2,4]triazine-7-carbonitrile]",3.73
6,"CN1CCOC(c2cc(C#N)cc(Nc3nc(NC4CC4)c4ncc(C#N)n4n3)c2Cl)C1 (racemic) [Example 694, (+/−)-2-((2-chloro-5-cyano-3-(4-methylmorpholin-2-yl)phenyl)amino)-4-(cyclopropylamino)imidazo[2,1-f][1,2,4]triazine-7-carbonitrile]",1.48
7,"CC(=O)N1CCOC(c2cc(C#N)cc(Nc3nc(NC4CC4)c4ncc(C#N)n4n3)c2Cl)C1 (racemic) [Example 695, (+/−)-2-((3-(4-acetylmorpholin-2-yl)-2-chloro-5-cyanophenyl)amino)-4-(cyclopropylamino)imidazo[2,1-f][1,2,4]triazine-7-carbonitrile]",3.7
8,"N#Cc1cc(CN2CCNC(C(F)(F)F)C2)c(Cl)c(Nc2nc(NC3CC3)c3ncc(C#N)n3n2)c1 (racemic) [Example 696, (+/−)-2-((2-chloro-5-cyano-3-((3-(trifluoromethyl)piperazin-1-yl)methyl)phenyl)amino)-4-(cyclopropylamino)imidazo[2,1-f][1,2,4]triazine-7-carbonitrile]",1.48
9,"N#Cc1cc(Nc2nc(NC3CC3)c3ncc(C#N)n3n2)c(Cl)c(N2CCOC(CO)C2)c1 (racemic) [Example 697, (+/−)-2-((2-chloro-5-cyano-3-(2-(hydroxymethyl)morpholino)phenyl)amino)-4-(cyclopropylamino)imidazo[2,1-f][1,2,4]triazine-7-carbonitrile]",0.2
10,"CCNc1nc(Nc2cc(C#N)cc(N3CC[C@@H](N4CC(O)C4)[C@H](O)C3)c2Cl)nn2c(C#N)cnc12 (racemic) [Example 776, (+/−)-2-((2-chloro-5-cyano-3-((3R,4R)-3-hydroxy-4-(3-hydroxyazetidin-1-yl)piperidin-1-yl)phenyl)amino)-4-(ethylamino)imidazo[2,1-f][1,2,4]triazine-7-carbonitrile]",1.2
11,"CN1CCC2(CCN(c3cc(C#N)cc(Nc4nc(NC5CC5)c5ncc(C#N)n5n4)c3Cl)CC2)C1=O (racemic) [Example 779, (+/−)-2-((2-chloro-5-cyano-3-(2-methyl-1-oxo-2,8-diazaspiro[4.5]decan-8-yl)phenyl)amino)-4-(cyclopropylamino)imidazo[2,1-f][1,2,4]triazine-7-carbonitrile]",0.63
12,"CN1CC2(CCN(c3cc(C#N)cc(Nc4nc(NC5CC5)c5ncc(C#N)n5n4)c3Cl)CC2)CC1=O (racemic) [Example 782, (+/−)-2-((2-chloro-5-cyano-3-(2-methyl-3-oxo-2,8-diazaspiro[4.5]decan-8-yl)phenyl)amino)-4-(cyclopropylamino)imidazo[2,1-f][1,2,4]triazine-7-carbonitrile]",0.58
13,"CN1C(=O)CNC12CCN(c1cc(C#N)cc(Nc3nc(NC4CC4)c4ncc(C#N)n4n3)c1Cl)CC2 (racemic) [Example 785, (+/−)-2-((2-chloro-5-cyano-3-(1-methyl-2-oxo-1,4,8-triazaspiro[4.5]decan-8-yl)phenyl)amino)-4-(cyclopropylamino)imidazo[2,1-f][1,2,4]triazine-7-carbonitrile]",6.67

# Results, then the compound that gave them:
row,IC50 [nM],Structure (SMILES)
1,2.94,"CC(O)CN1CCN(c2cc(C#N)cc(Nc3nc(NC4CC4)c4ncc(C#N)n4n3)c2Cl)C(=O)C1 (racemic) [Example 624, (+/−)-2-((2-chloro-5-cyano-3-(4-(2-hydroxypropyl)-2-oxopiperazin-1-yl)phenyl)amino)-4-(cyclopropylamino)imidazo[2,1-f][1,2,4]triazine-7-carbonitrile]"
2,0.74,"CN1CCN2CCN(c3cc(C#N)cc(Nc4nc(NC5CC5)c5ncc(C#N)n5n4)c3Cl)CC2C1=O (racemic) [Example 626, (+/−)-2-((2-chloro-5-cyano-3-(8-methyl-9-oxohexahydro-1H-pyrazino[1,2-a]pyrazin-2(6H)-yl)phenyl)amino)-4-(cyclopropylamino)imidazo[2,1-f][1,2,4]triazine-7-carbonitrile]"
3,1.28,"CC(C(N)=O)N1CCC(c2cc(C#N)cc(Nc3nc(NC4CC4)c4ncc(C#N)n4n3)c2Cl)CC1 (racemic) [Example 639, (+/−)-2-(4-(2-chloro-5-cyano-3-((7-cyano-4-(cyclopropylamino)imidazo[2,1-f][1,2,4]triazin-2-yl)amino)phenyl)piperidin-yl)propanamide]"
4,1.87,CC(c1cc(C#N)cc(Nc2nc(NC3CC3)c3ncc(C#N)n3n2)c1Cl)N1CCN(S(C)(=O)=O)CC1 (racemic) [Example 678]
5,0.64,"N#Cc1cc(Nc2nc(NC3CC3)c3ncc(C#N)n3n2)c(Cl)c(C(O)CO)c1 (racemic) [Example 681, (+/−)-2-((2-chloro-5-cyano-3-(1,2-dihydroxyethyl)phenyl)amino)-4-(cyclopropylamino)imidazo[2,1-f][1,2,4]triazine-7-carbonitrile]"
6,0.32,"CC(O)(CO)c1cc(C#N)cc(Nc2nc(NC3CC3)c3ncc(C#N)n3n2)c1Cl (racemic) [Example 682, (+/−)-2-((2-chloro-5-cyano-3-(1,2-dihydroxypropan-2-yl)phenyl)amino)-4-(cyclopropylamino)imidazo[2,1-f][1,2,4]triazine-7-carbonitrile]"
7,1.36,"CN1CCN(c2cc(C#N)cc(Nc3nc(NC4CC4)c4ncc(C#N)n4n3)c2Cl)CC1CO (racemic) [Example 698, (+/−)-2-({2-chloro-5-cyano-3-[3-(hydroxymethyl)-4-methylpiperazin-1-yl]phenyl}amino)-4-(cyclopropylamino)imidazo[2,1-f][1,2,4]triazine-7-carbonitrile]"
8,0.97,"CCNC(=O)OCC1CN(c2cc(C#N)cc(Nc3nc(NC4CC4)c4ncc(C#N)n4n3)c2Cl)CCO1 (racemic) [Example 699, (+/−)-(4-(2-chloro-5-cyano-3-((7-cyano-4-(cyclopropylamino)imidazo[2,1-f][1,2,4]triazin-2-yl)amino)phenyl)morpholin-2-yl)methyl ethylcarbamate]"
9,0.57,"CS(=O)(=O)NCC1CN(c2cc(C#N)cc(Nc3nc(NC4CC4)c4ncc(C#N)n4n3)c2Cl)CCO1 (racemic) [Example 700, (+/−)-N-((4-(2-chloro-5-cyano-3-((7-cyano-4-(cyclopropylamino)imidazo[2,1-f][1,2,4]triazin-2-yl)amino)phenyl)morpholin-2-yl)methyl)methanesulfonamide]"
10,1.39,"N#Cc1cc(Nc2nc(NC3CC3)c3ncc(C#N)n3n2)c(Cl)c(C2CCCC(N3CCOCC3)C2)c1 (racemic) [Example 725, (+/−) cis and trans-2-((2-chloro-5-cyano-3-(3-morpholinocyclohexyl)phenyl)amino)-4-(cyclopropylamino)imidazo[2,1-f][1,2,4]triazine-7-carbonitrile]"
11,0.45,"N#Cc1cc(CCC2CNCCO2)c(Cl)c(Nc2nc(NC3CC3)c3ncc(C#N)n3n2)c1 (racemic) [Example 739, (+/−)-2-((2-chloro-5-cyano-3-(2-(morpholin-2-yl)ethyl)phenyl)amino)-4-(cyclopropylamino) imidazo[2,1-f][1,2,4]triazine-7-carbonitrile]"
12,0.64,"N#Cc1cc(Nc2nc(NC3CC3)c3ncc(C#N)n3n2)c(Cl)c(N2C[C@@H]3CCCN[C@@H]3C2)c1 (racemic) [Example 777, (+/−)-2-((2-chloro-5-cyano-3-((4aS,7aS)-hexahydro-1H-pyrrolo[3,4-b]pyridin-6(2H)-yl)phenyl)amino)-4-(cyclopropylamino)imidazo[2,1-f][1,2,4]triazine-7-carbonitrile]"
13,0.71,"CCNc1nc(Nc2cc(C#N)cc(N3CCC4(CC3)CN(C)C(=O)O4)c2Cl)nn2c(C#N)cnc12 (racemic) [Example 781, (+/−)-2-((2-chloro-5-cyano-3-(3-methyl-2-oxo-1-oxa-3,8-diazaspiro[4.5]decan-8-yl)phenyl)amino)-4-(ethylamino)imidazo[2,1-f][1,2,4]triazine-7-carbonitrile]"
14,3.76,"CCNc1nc(Nc2cc(C#N)cc(N3CCC4(CC3)CC(=O)N(C)C4)c2Cl)nn2c(C#N)cnc12 (racemic) [Example 783, (+/−)-2-((2-chloro-5-cyano-3-(2-methyl-3-oxo-2,8-diazaspiro[4.5]decan-8-yl)phenyl)amino)-4-(ethylamino)imidazo[2,1-f][1,2,4]triazine-7-carbonitrile]"
15,1.88,"CCNc1nc(Nc2cc(C#N)cc(N3CCC4(CCN(C)C4=O)CC3)c2Cl)nn2c(C#N)cnc12 (racemic) [Example 784, (+/−)-2-((2-chloro-5-cyano-3-(2-methyl-1-oxo-2,8-diazaspiro[4.5]decan-8-yl)phenyl)amino)-4-(ethylamino)imidazo[2,1-f][1,2,4]triazine-7-carbonitrile]"

# Reference: US9273057B2 (Bristol-Myers Squibb Company, priority 2012, dated 2016)
